According to patent publication US20260357222A1, “GROWTH-BASED SELECTION PLATFORM FOR NONCANONICAL COFACTOR OXIDIZING ENZYMES” (The Regents of the University of California, priority 2022, published 2026):
Changes are numbered by the printed parent chain.

T1: Lactobacillus pentosus NADH oxidase (Lp Nox), wild type, SEQ ID NO:1 (Lactiplantibacillus pentosus, UniProt A0A0U3FIG2)
T1 sequence (A0A0U3FIG2 1-450): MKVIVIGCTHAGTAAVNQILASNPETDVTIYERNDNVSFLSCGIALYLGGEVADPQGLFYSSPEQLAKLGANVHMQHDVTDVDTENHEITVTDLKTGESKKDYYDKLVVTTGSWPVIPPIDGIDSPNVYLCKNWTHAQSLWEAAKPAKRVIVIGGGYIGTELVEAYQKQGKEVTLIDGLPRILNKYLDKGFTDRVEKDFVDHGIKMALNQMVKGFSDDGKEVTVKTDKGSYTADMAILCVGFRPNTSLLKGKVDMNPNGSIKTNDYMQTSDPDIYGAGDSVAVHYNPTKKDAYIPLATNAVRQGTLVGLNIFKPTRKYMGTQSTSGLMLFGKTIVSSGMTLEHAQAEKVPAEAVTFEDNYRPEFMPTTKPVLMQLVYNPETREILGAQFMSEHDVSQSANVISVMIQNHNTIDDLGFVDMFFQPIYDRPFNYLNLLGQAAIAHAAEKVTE

T2: Lactobacillus pentosus NADH oxidase (Lp Nox) variant LP-7 (I158S-D177W-V240L), SEQ ID NO:3 (Lactiplantibacillus pentosus, UniProt A0A0U3FIG2, D177W/I158S/V240L)
T2 construct: variant LP-7
T2 sequence (A0A0U3FIG2 1-450 I158S/D177W/V240L): T1 sequence (A0A0U3FIG2 1-450) with I158S, D177W, V240L

T3: Lactobacillus pentosus NADH oxidase (Lp Nox) variant LP-3 (I158S-D177W-G178E-V240L), SEQ ID NO:6 (Lactiplantibacillus pentosus, UniProt A0A0U3FIG2, D177W/G178E/I158S/V240L)
T3 construct: variant LP-3
T3 sequence (A0A0U3FIG2 1-450 I158S/D177W/G178E/V240L): T1 sequence (A0A0U3FIG2 1-450) with I158S, D177W, G178E, V240L

T4: Lactobacillus pentosus NADH oxidase (Lp Nox) variant LP-3-EP (I158S-D177W-G178E-V240L-P362H-V395L), SEQ ID NO:7 (Lactiplantibacillus pentosus, UniProt A0A0U3FIG2, D177W/G178E/I158S/P362H/V240L/V395L)
T4 construct: variant LP-3-EP
T4 sequence (A0A0U3FIG2 1-450 I158S/D177W/G178E/V240L/P362H/V395L): T1 sequence (A0A0U3FIG2 1-450) with I158S, D177W, G178E, V240L, P362H, V395L

B1: Lactobacillus pentosus NADH oxidase (Lp Nox), wild type, SEQ ID NO:1 (Lactiplantibacillus pentosus) (protein)
chain: T1 sequence (A0A0U3FIG2 1-450)

Key:
[1] = molecular target: T1, Lactobacillus pentosus NADH oxidase (Lp Nox), wild type, SEQ ID NO:1; conditions: role: cofactor; oxidation of MNAH and BNAH by wild-type Lp Nox; cited from earlier work
[2] = molecular target: T2, Lactobacillus pentosus NADH oxidase (Lp Nox) variant LP-7 (I158S-D177W-V240L), SEQ ID NO:3; assay: Lp Nox enzymatic kinetics, cofactor oxidation at 340 nm, variant LP-7; type: biochemical; conditions: role: cofactor; for Km / kcat / kcat/Km: apparent, cofactor 0 to 2 mM
Description: (§1) Protein Expression and Purification. Lp Nox wild type or variants (see Table 1) are expressed with E. coli BL21 (DE3) with plasmids inoculated in 2× YT media with 200 mg L^−1 ampicillin. Expression was carried out by inoculation of 20 mL 2× YT media supplied with antibiotics and an overnight culture incubated at 30 °C, 250 RPM with an OD600nm of 0.072. Cells were grown at 37 °C in 50 mL conical tubes, and the cultures were induced with 0.5 mM IPTG at an OD600nm of 0.6-1.0. The 20 mL culture was then incubated at 27 °C and 250 RPM for 24 h. After 24 h, cells were harvested for protein extraction (centrifugation at 4 °C, 3000 RPM, 20 min). Cell pellets were resuspended in Zymo His-Binding buffer (Zymo Research Corporation) supplied with 0.15 mM FAD, 1 μL/mL DNase (Sigma Aldrich) and 1 mM InSolution [COMPOUND LEFT OUT] (Sigma Aldrich). The resuspended cell mixture was added to 0.5 mL of 0.1 mm glass beads (Biospec) and homogenized using a benchtop homogenizer (MP Biomedicals). Cell debris was separated from the crude extract by centrifugation at 4 °C and 15,000 RPM for 5 min. Protein purification was performed using His-Spin Protein Miniprep (Zymo Research Corporation) according to the manufacturer's instructions. The concentrations of purified protein were quantified by a Bradford assay using BSA as a standard. Purified protein was stored in aliquots with 20% (v/v) glycerol at −80 °C.
(§2) NMNH generation. NMNH generation was performed in 20 mL reaction volumes in a 50 ml conical tube containing 200 mM Tris-Cl at pH 8.0, 100 mM sodium chloride, 3 mM potassium chloride, 200 mM glucose, and 20 m MNMN^+. The reaction was initiating by spiking 500 ng of purified Bacillus subtilis glucose dehydrogenase I195R8. The reaction was incubated at 30 °C until reaction progression stopped, approximately 6 h. Reaction progression was monitored by observing the increase in light absorption at 340 nm, corresponding to the reduction of NMN^+ to NMNH. Then, the solution was filtered through a 15 kD cutoff filter to remove the protein. To purify the NMNH, the flowthrough was mixed with HPLC-grade acetonitrile to a final concentration of 70% acetonitrile, and the solution was passed through a Phenomenex Strata NH2 (2 g/12 mL, 55 μm, 70 Å) solid phase extraction column. The column was washed twice with 4 mL of 70:30 acetonitrile:water, then twice with 4 mL of 50:50 acetonitrile:water, twice with 4 mL of 30:70 acetonitrile:water, twice with 4 mL of nanopurified water, and finally twice with 4 mL of methanol. To elute the NMNH from the column, 2 mL of a solution containing 50:50 ammonium hydroxide:methanol was added to the column and incubated for 3 minutes before eluting. The elution step was repeated until no NMNH remained in the flow through, as monitored by light absorption at 340 nm. The elution fractions containing NMNH were pooled and aliquoted in 1 mL volumes into clean tubes. The solutions were dried over air and stored at −80 °C until use.
(§3) Lp Nox Enzymatic Assays and Kinetic study with NMNH, NAD(P) H. The Lp Nox activity (see FIG. 4A) was determined by the change in light absorption at 340 nm at 37 °C in 50 mM Tris-Cl buffer pH 7.0. The reactions were started by adding the purified protein to the prewarmed 37 °C assay mixture containing 0.3 mM of respective cofactor. The absorbance change at 340 nm for NAD(P) H and NMNH was detected using a SpectraMax M3 microplate reader. For kinetics parameter determination (see Table 2), cofactor concentrations were varied from 0 to 2 mM and the results were fitted to the standard Michaelis-Menten equation or Lineweaver-Burk equation to acquire catalytic efficiencies (kcat/Km) when the cofactor concentration tested could not saturate the enzyme activity or during the presence of substrate inhibition. Cofactor concentration over 2 mM could not be measured accurately on M3 spectrometer due to detector absorbance saturation at 340 nm.

[3] = molecular target: T3, Lactobacillus pentosus NADH oxidase (Lp Nox) variant LP-3 (I158S-D177W-G178E-V240L), SEQ ID NO:6; assay: Lp Nox enzymatic kinetics, cofactor oxidation at 340 nm, variant LP-3; type: biochemical; conditions: role: cofactor, 50 mM Tris-HCl pH 7.0, 37 °C; for Km / kcat / kcat/Km: apparent, cofactor 0 to 2 mM
Description: as §1, §2, §3

[4] = molecular target: T4, Lactobacillus pentosus NADH oxidase (Lp Nox) variant LP-3-EP (I158S-D177W-G178E-V240L-P362H-V395L), SEQ ID NO:7; assay: Lp Nox enzymatic kinetics, cofactor oxidation at 340 nm, variant LP-3-EP; type: biochemical; conditions: for kcat/Km: estimated based on kinetics under lower cofactor concentrations before inhibition was observed; for inhibition of LP 3-EP activity by the cofactor: role: inhibitor (cofactor inhibition), above 1 mM NADH or NADPH, fits poorly with the substrate inhibition rate equation
Description: as §1, §2, §3

[5] = molecular target: T1, Lactobacillus pentosus NADH oxidase (Lp Nox), wild type, SEQ ID NO:1; assay: Lp Nox enzymatic kinetics, cofactor oxidation at 340 nm, wild type; type: biochemical; conditions: role: cofactor, 50 mM Tris-HCl pH 7.0, 37 °C
Description: as §1
NMNH generation. NMNH generation was performed in 20 mL reaction volumes in a 50 ml conical tube containing 200 mM Tris-Cl at pH 8.0, 100 mM sodium chloride, 3 mM potassium chloride, 200 mM glucose, and 20 m MNMN^+. The reaction was initiating by spiking 500 ng of purified Bacillus subtilis glucose dehydrogenase I195R8. The reaction was incubated at 30 °C until reaction progression stopped, approximately 6 h. Reaction progression was monitored by observing the increase in light absorption at 340 nm, corresponding to the reduction of NMN^+ to NMNH. Then, the solution was filtered through a 15 kD cutoff filter to remove the protein. […] The elution step was repeated until no NMNH remained in the flow through, as monitored by light absorption at 340 nm. […]
(§4) Lp Nox Enzymatic Assays and Kinetic study with NMNH, NAD(P) H. The Lp Nox activity (see FIG. 4A) was determined by the change in light absorption at 340 nm at 37 °C in 50 mM Tris-Cl buffer pH 7.0. […] The absorbance change at 340 nm for NAD(P) H and NMNH was detected using a SpectraMax M3 microplate reader. […] Cofactor concentration over 2 mM could not be measured accurately on M3 spectrometer due to detector absorbance saturation at 340 nm.

[6] = substrate: NC(=O)C1=CN([C@@H]2O[C@H](COP(=O)(O)OP(=O)(O)OC[C@H]3O[C@@H](n4cnc5c(N)ncnc54)[C@H](O)[C@@H]3O)[C@@H](O)[C@H]2O)C=CC1; assay: as above; type: biochemical, Lactobacillus pentosus; conditions: other: role: cofactor, apparent, 50 mM Tris-HCl pH 7.0, 37 °C, cofactor 0 to 2 mM
Description: as §1, with “Purified protein was stored in aliquots with 20% (v/v) glycerol at −80 °C.” left out
NMNH generation. […] Reaction progression was monitored by observing the increase in light absorption at 340 nm, corresponding to the reduction of NMN^+ to NMNH. […] The elution step was repeated until no NMNH remained in the flow through, as monitored by light absorption at 340 nm. […]
as §4

[7] = role: cofactor, 50 mM Tris-HCl pH 7.0, 37 °C
[8] = enzyme could not be saturated with the cofactor concentrations tested

Molecule	catalytic efficiencies (in words) [1]	Km ([2]; 50 mM Tris-HCl pH 7.0, 37 °C)	kcat ([2]; 50 mM Tris-HCl pH 7.0, 37 °C)	kcat/Km ([2]; 50 mM Tris-HCl pH 7.0, 37 °C)	Km [3]	kcat [3]	kcat/Km [3]	kcat/Km [4, 7]	inhibition of LP 3-EP activity by the cofactor [4]	further results
NC(=O)C1=CN(Cc2ccccc2)C=CC1 [BNAH, 1-Benzyl-1,4-dihydronicotinamide]	low catalytic efficiencies	–	–	–	–	–	–	–	–	–
CN1C=CCC(C(N)=O)=C1 [MNAH, N-methyl-1,4-dihydronicotinamide]	low catalytic efficiencies	–	–	–	–	–	–	–	–	–
NC(=O)C1=CN([C@@H]2O[C@H](COP(=O)(O)OP(=O)(O)OC[C@H]3O[C@@H](n4cnc5c(N)ncnc54)[C@H](O)[C@@H]3O)[C@@H](O)[C@H]2O)C=CC1 [NADH, nicotinamide adenine dinucleotide]	–	1700 ± 200 µM	47 ± 4 s⁻¹	28000 ± 1000 M⁻¹ s⁻¹	1900 ± 40 µM	31 ± 1 s⁻¹	17000 ± 1000 M⁻¹ s⁻¹	49 ± 2.0^c mM^−1s^−1	strongly inhibited	–
NC(=O)C1=CN([C@@H]2O[C@H](COP(=O)(O)OP(=O)(O)OC[C@H]3O[C@@H](n4cnc5c(N)ncnc54)[C@H](OP(=O)(O)O)[C@@H]3O)[C@@H](O)[C@H]2O)C=CC1 [NADPH, nicotinamide adenine dinucleotide phosphate]	–	890 ± 40 µM	27 ± 2 s⁻¹	31000 ± 1000 M⁻¹ s⁻¹	1100 ± 100 µM	28 ± 1 s⁻¹	26000 ± 1000 M⁻¹ s⁻¹	51 ± 3^c mM^−1s^−1	strongly inhibited	Km ([5]; apparent, cofactor 0 to 2 mM): 1900 ± 200 µM; kcat ([5]; apparent, cofactor 0 to 2 mM): 18 ± 2 s⁻¹; kcat/Km ([5]; apparent, cofactor 0 to 2 mM): 9300 ± 200 M⁻¹ s⁻¹
NC(=O)C1=CN([C@@H]2O[C@H](COP(=O)(O)O)[C@@H](O)[C@H]2O)C=CC1 [NMNH, nicotinamide mononucleotide]	–	–	–	–	–	–	–	–	–	kcat/Km (catalytic efficiency for NMNH) [5, 8]: 2300 ± 100 M⁻¹ s⁻¹; kcat/Km (catalytic efficiency for NMNH) ([2]; 50 mM Tris-HCl pH 7.0, 37 °C, enzyme could not be saturated with the cofactor concentrations tested): 18000 ± 1000 M⁻¹ s⁻¹; increase of catalytic efficiency for NMNH from the wild type ([2]; ratio of kcat/Km to wild type): ~ 8 fold; kcat/Km (catalytic efficiency for NMNH) [3, 8]: 10000 ± 1000 M⁻¹ s⁻¹; kcat/Km (catalytic efficiency for NMNH) ([4]; role: cofactor, 50 mM Tris-HCl pH 7.0, 37 °C, enzyme could not be saturated with the cofactor concentrations tested): 23000 ± 1000 M⁻¹ s⁻¹; inhibition effect when NMNH was utilized ([4]; role: cofactor, NMNH as cofactor): not seen; gain of catalytic efficiency for NMNH from LP 3 ([4]; role: cofactor, ratio of kcat/Km to LP 3): ~ 2.5 fold; increase of catalytic efficiency for NMNH from the wild type ([4]; role: cofactor, ratio of kcat/Km to wild type): ~ 10 fold
B1	–	–	–	–	–	–	–	–	–	Km [6]: 24 ± 5 µM; kcat [6]: 21 ± 1 s⁻¹; kcat/Km [6]: 844000 ± 4000 M⁻¹ s⁻¹
